Data as given in patent US20200392150A1, “Diaryl-B-Lactam Compound and Preparation Method and Pharmaceutical Use Thereof” (Fudan University, priority 2016, published 2020).

Experiments:
Test in all cases: In vitro cell growth inhibition assay (MTT)
Format in all cases: cell-based, human
[1] = system: SKOV3; settings: SK-OV-3; SKOV-3 human ovarian cancer cell line, 48 h, MTT; read-out: IC50 SKOV3
Description: (§1) 5000 tumor cells per well were seeded into 96-well plate and allowed to adhere overnight. Cells were treated with various concentrations of tested compounds or DMSO (0.2%, as negative control) for 48 h. Then, the medium along with tested compounds or DMSO was discarded and […] per well MTT containing medium (0.5 mg/mL) was added. After incubation at 37° C. for 4 h, the MTT-containing medium was replaced by DMSO (150 μL per well) to dissolve the formazan crystals. Absorbance of the resulting solution was measured by microplate reader (Biotech ELx800) at 540 nm wavelength. Growth inhibition rates were calculated with the absorbance. Half maximal inhibitory concentration (IC50) of each compound was calculated using GraphPad Prism, version 6.0.

[2] = system: A2780; settings: A2780 human ovarian cancer cell line, 48 h, MTT; read-out: IC50 A2780
Description: as §1

[3] = system: Hela; settings: Hela human cervical cancer cell line, 48 h, MTT; read-out: IC50 Hela
Description: as §1

[4] = system: MDA-MB-231; settings: MDA-MB-231 human breast cancer cell line, 48 h, MTT; read-out: IC50 MDA-MB-231
Description: as §1

Structure (SMILES) | IC50 [1] | IC50 [2] | IC50 [3] | IC50 [4]
C=C1C(=O)N(c2cc(OC)c(OC)c(OC)c2)[C@H]1c1ccc(OC)c(OCCCNC(=O)OCc2ccccc2)c1 [Compound 17, (S)-benzyl (3-(2-methoxy-5-(3-methylene-4-oxo-1-(3,4,5-trimethoxyphenyl)azetidin-2-yl)phenoxy)propyl)carbamate] | > 10000 nM | > 10000 nM | > 10000 nM | > 10000 nM
C=C1C(=O)N(c2cc(OC)c(OC)c(OC)c2)[C@H]1c1ccc(OC)c(OC(=O)c2ccccc2OC)c1 [Compound 21, (S)-2-methoxy-5-(3-methylene-4-oxo-1-(3,4,5-trimethoxyphenyl)azetidin-2-yl)phenyl 2-methoxybenzoate] | 155 nM | 201 nM | 106 nM | 218 nM
C=C1C(=O)N(c2cc(OC)c(OC)c(OC)c2)[C@H]1c1ccc(OC)c(OS(=O)(=O)c2ccc(C)cc2)c1 [Compound 27, (S)-2-methoxy-5-(3-methylene-4-oxo-1-(3,4,5-trimethoxyphenyl)azetidin-2-yl)phenyl 4-methylbenzenesulfonate] | 12100 nM | 6670 nM | 17800 nM | 12800 nM
C=C1C(=O)N(c2cc(OC)c(OC)c(OC)c2)[C@H]1c1ccc(OC)c(OS(=O)(=O)c2ccc(NC(C)=O)cc2)c1 [Compound 30, (S)-2-methoxy-5-(3-methylene-4-oxo-1-(3,4,5-trimethoxyphenyl)azetidin-2-yl)phenyl 4-acetamidobenzenesulfonate] | 12000 nM | 12200 nM | 15900 nM | 15800 nM
C=C1C(=O)N(c2cc(OC)c(OC)c(OC)c2)[C@H]1c1ccc(OC)c(OS(=O)(=O)Cc2ccccc2)c1 [Compound 32, (S)-2-methoxy-5-(3-methylene-4-oxo-1-(3,4,5-trimethoxyphenyl)azetidin-2-yl)phenyl phenylmethanesulfonate] | 8660 nM | 7340 nM | > 20000 nM | > 20000 nM
C=C1C(=O)N(c2cc(OC)c(OC)c(OC)c2)[C@H]1c1ccc(OC)c(OS(=O)(=O)c2ccc(OC)c(OC)c2)c1 [Compound 33, (S)-2-methoxy-5-(3-methylene-4-oxo-1-(3,4,5-trimethoxyphenyl)azetidin-2-yl)phenyl 3,4-dimethoxybenzenesulfonate] | 15200 nM | 12300 nM | 12300 nM | 13400 nM
C=C1C(=O)N(c2cc(OC)c(OC)c(OC)c2)[C@H]1c1ccc(OC)c(OC(=O)[C@H](C)NC(=O)OC(C)(C)C)c1 [Compound 35, (S)-2-methoxy-5-((S)-3-methylene-4-oxo-1-(3,4,5-trimethoxyphenyl)azetidin-2-yl)phenyl 2-((tert-butoxycarbonyl)amino)propanoate] | 252 nM | 496 nM | 106 nM | 496 nM
C=C1C(=O)N(c2cc(OC)c(OC)c(OC)c2)[C@H]1c1ccc(OC)c(OC(=O)[C@@H](NC(=O)OC(C)(C)C)C(C)C)c1 [Compound 36, (S)-2-methoxy-5-((S)-3-methylene-4-oxo-1-(3,4,5-trimethoxyphenyl)azetidin-2-yl)phenyl 2-((tert-butoxycarbonyl)amino)-3-methylbutanoate] | 496 nM | 505 nM | 501 nM | 506 nM
C=C1C(=O)N(c2cc(OC)c(OC)c(OC)c2)[C@H]1c1ccc(OC)c(OP(=O)(OCc2ccccc2)OCc2ccccc2)c1 [Compound 37, (S)-dibenzyl (2-methoxy-5-(3-methylene-4-oxo-1-(3,4,5-trimethoxyphenyl)azetidin-2-yl)phenyl) phosphate] | > 20000 nM | > 20000 nM | > 20000 nM | > 20000 nM
C=C1C(=O)N(c2cc(OC)c(OC)c(OC)c2)[C@H]1c1ccc(OC)c(F)c1 [Compound 38, (S)-4-(3-fluoro-4-methoxyphenyl)-3-methylene-1-(3,4,5-trimethoxyphenyl)azetidin-2-one] | 134 nM | 121 nM | 131 nM | 111 nM
C=C1C(=O)N(c2cc(OC)c(OC)c(OC)c2)[C@H]1c1ccc(OC)c(N)c1 [Compound 41, (S)-4-(3-amino-4-methoxyphenyl)-3-methylene-1-(3,4,5-trimethoxyphenyl)azetidin-2-one] | 36 nM | 31 nM | 32 nM | 40 nM
C=C1C(=O)N(c2cc(OC)cc(OC)c2)[C@H]1c1ccc(OC)c(O)c1 [Compound 49, (S)-1-(3,5-dimethoxyphenyl)-4-(3-hydroxy-4-methoxyphenyl)-3-methyleneazetidin-2-one] | 175 nM | 112 nM | 295 nM | 125 nM
C=C1C(=O)N(c2ccc(OC)cc2OC)[C@H]1c1ccc(OC)c(O)c1 [Compound 50, (S)-1-(2,4-dimethoxyphenyl)-4-(3-hydroxy-4-methoxyphenyl)-3-methyleneazetidin-2-one] | 513 nM | 234 nM | 894 nM | 291 nM
COc1ccc([C@H]2/C(=C\C[Si](C)(C)C)C(=O)N2c2cc(OC)c(OC)c(OC)c2)cc1O [Compound 54, (S,E)-4-(3-hydroxy-4-methoxyphenyl)-1-(3,4,5-trimethoxyphenyl)-3-(2-(trimethylsilyl)ethylidene)azetidin-2-one] | > 10000 nM | > 10000 nM | > 10000 nM | > 10000 nM
COc1ccc([C@H]2/C(=C/c3ccccc3)C(=O)N2c2cc(OC)c(OC)c(OC)c2)cc1O [Compound 57, (S,Z)-3-benzylidene-4-(3-hydroxy-4-methoxyphenyl)-1-(3,4,5-trimethoxyphenyl)azetidin-2-one] | 2990 nM | 2540 nM | 4730 nM | 3160 nM
COc1ccc([C@H]2/C(=C/c3ccc(C(C)(C)C)cc3)C(=O)N2c2cc(OC)c(OC)c(OC)c2)cc1O [Compound 58, (S,Z)-3-(4-(tert-butyl)benzylidene)-4-(3-hydroxy-4-methoxyphenyl)-1-(3,4,5-trimethoxyphenyl)azetidin-2-one] | > 20000 nM | > 20000 nM | > 20000 nM | > 20000 nM
COc1ccc([C@H]2[C@@H](CC[Si](C)(C)C)C(=O)N2c2cc(OC)c(OC)c(OC)c2)cc1O [Compound 59, (3R,4R)-4-(3-hydroxy-4-methoxyphenyl)-1-(3,4,5-trimethoxyphenyl)-3-(2-(trimethylsilyl)ethyl)azetidin-2-one] | 5630 nM | 7540 nM | 9140 nM | 6440 nM
COc1ccc([C@H]2[C@H](n3cc(CO)nn3)C(=O)N2c2cc(OC)c(OC)c(OC)c2)cc1O [Compound 61, (3S,4S)-4-(3-hydroxy-4-methoxyphenyl)-3-(4-(hydroxymethyl)-1H-1,2,3-triazol-1-yl)-1-(3,4,5-trimethoxyphenyl)azetidin-2-one] | 83 nM | 15 nM | 33 nM | 28 nM
COc1ccc([C@H]2[C@@H](CN(C)C)C(=O)N2c2cc(OC)c(OC)c(OC)c2)cc1O [Compound 62, (3R,4R)-3-((dimethylamino)methyl)-4-(3-hydroxy-4-methoxyphenyl)-1-(3,4,5-trimethoxyphenyl)azetidin-2-one] | > 20000 nM | 7720 nM | > 20000 nM | > 20000 nM
COc1ccc([C@H]2[C@@H](CNCc3ccccc3)C(=O)N2c2cc(OC)c(OC)c(OC)c2)cc1O [Compound 63, (3R,4R)-3-((benzylamino)methyl)-4-(3-hydroxy-4-methoxyphenyl)-1-(3,4,5-trimethoxyphenyl)azetidin-2-one] | 1670 nM | 1020 nM | 2270 nM | 1790 nM
COc1ccc([C@H]2[C@@H](OC(=O)CCC(=O)O)C(=O)N2c2cc(OC)c(OC)c(OC)c2)cc1O [Compound 64, 4-(((2S,3R)-2-(3-hydroxy-4-methoxyphenyl)-4-oxo-1-(3,4,5-trimethoxyphenyl)azetidin-3-yl)oxy)-4-oxobutanoic acid] | 210 nM | 79 nM | 178 nM | 102 nM
CCOC(=O)CO[C@H]1C(=O)N(c2cc(OC)c(OC)c(OC)c2)[C@H]1c1ccc(OC)c(O)c1 [Compound 65, ethyl 2-(((2S,3R)-2-(3-hydroxy-4-methoxyphenyl)-4-oxo-1-(3,4,5-trimethoxyphenyl)azetidin-3-yl)oxy)acetate] | 721 nM | 423 nM | 669 nM | 672 nM
COc1ccc([C@H]2[C@H](Br)C(=O)N2c2cc(OC)c(OC)c(OC)c2)cc1O [Compound 66, (3S,4S)-3-bromo-4-(3-hydroxy-4-methoxyphenyl)-1-(3,4,5-trimethoxyphenyl)azetidin-2-one] | 9 nM | 8 nM | 13 nM | 10 nM
COc1ccc([C@H]2CC(=O)N2c2cc(OC)c(OC)c(OC)c2)cc1O [Compound 67, (R)-4-(3-hydroxy-4-methoxyphenyl)-1-(3,4,5-trimethoxyphenyl)azetidin-2-one] | 24 nM | 22 nM | 30 nM | 28 nM
COc1ccc([C@H]2[C@H](NC(C)=O)C(=O)N2c2cc(OC)c(OC)c(OC)c2)cc1O [Compound 77, N-((2S,3S)-2-(3-hydroxy-4-methoxyphenyl)-4-oxo-1-(3,4,5-trimethoxyphenyl)azetidin-3-yl)acetamide] | 32 nM | 33 nM | 35 nM | 47 nM
